In general, CC50 refers to the concentration giving 50% cytotoxicity. A high value points to better tolerance by the cells. In general, pEC50 refers to the EC50 on a negative log10 scale, so that one unit is a factor of ten.

pEC50: −log10 of the molar value. A value given as a limit tells only on which side of the number the result lay.

The values that follow come from patent US20220411419A1, “SMALL MOLECULE MODULATORS OF MHC-I” (RetroVirox, Inc., priority 2018, published 2022).

One data set in a line: in vitro. The conditions noted are these: human, uninfected SupT1 cells.
The test system of data set [1] is downmodulation of MHC-I molecules expressed on the surface of HIV infected SupT1 cells. Kind of data set: cells. The conditions noted are these: for pEC50: Human immunodeficiency virus 1, SUP-T1, read-out: EC50 for inhibition of MHC-I downmodulation utilizing the R1 parameter; for activity at 100 µM: Human immunodeficiency virus 1, SUP-T1, read-out: R1 @ 100 μM (R1 value for MHC-I downmodulation as % of the vehicle control).

In turn, `CC1(C)Cc2cccc(OCC(=O)N(Cc3ccccn3)c3nc4c(F)cccc4s3)c2O1` [Compound 45, 2-((2,2-Dimethyl-2,3-dihydrobenzofuran-7-yl)oxy)-N-(4-fluorobenzo[d]thiazol-2-yl)-N-(pyridin-2-ylmethyl)acetamide] yielded a CC50 at 48 h in “in vitro” of over 100 µM. The pEC50 in data set [1] was 6.29.

In “in vitro”, `COc1ccccc1OCC(=O)Nc1nc2c(C)cccc2s1` [Compound 189, 2-(2-Methoxyphenoxy)-N-(4-methylbenzo[d]thiazol-2-yl)acetamide] came in with a CC50 of over 100 µM and a CC50 at 48 h of over 100 µM. For the same compound, in data set [1], the pEC50 is under 4.60 and the activity at 100 µM was determined as 39%.

Consider `Cc1ccc(N(C(=O)COc2cccc3c2OC(C)(C)C3)c2nc3c(s2)CCCC3)nn1` [Compound 92, 2-((2,2-Dimethyl-2,3-dihydrobenzofuran-7-yl)oxy)-N-(6-methylpyridazin-3-yl)-N-(4,5,6,7-tetrahydrobenzo[d]thiazol-2-yl)acetamide], for which, in the data set “in vitro”, the CC50 at 48 h is over 100 µM. In addition, the pEC50 in data set [1] is 4.60.

As for `CC1(C)Cc2cccc(OCC(=O)N(Cc3ccccn3)c3nc4c(s3)CCCC4)c2O1` [Compound 38, 2-((2,2-Dimethyl-2,3-dihydrobenzofuran-7-yl)oxy)-N-(pyridin-2-ylmethyl)-N-(4,5,6,7-tetrahydrobenzo[d]thiazol-2-yl)acetamide], the CC50 at 48 h in “in vitro” worked out at 0.25 µM. Besides, in data set [1], the pEC50 is 8.22.

Compound `CC1(C)Cc2cccc(OCC(=O)Nc3nc4c(s3)CCCCC4)c2O1` [Compound 3, 2-((2,2-Dimethyl-2,3-dihydrobenzofuran-7-yl)oxy)-N-(5,6,7,8-tetrahydro-4H-cyclohepta[d]thiazol-2-yl)acetamide] yielded a CC50 at 48 h in “in vitro” of over 100 µM. For the same compound, in data set [1], the pEC50 was 6.70.

Compound `Cc1csc(N(C(=O)COc2cccc3c2OC(C)(C)C3)c2ccc(F)cc2)n1` [Compound 58, 2-((2,2-Dimethyl-2,3-dihydrobenzofuran-7-yl)oxy)-N-(4-fluorophenyl)-N-(4-methylthiazol-2-yl)acetamide] displayed a cytotoxic concentration (CC50) at 48 h in the data set “in vitro” of over 100 µM. For the same compound, the pEC50 in data set [1] is 6.54.

On to `Cc1ccc(N(Cc2ccccc2)C(=O)COc2cccc3c2OC(C)(C)C3)nn1` [Compound 36, N-Benzyl-2-((2,2-dimethyl-2,3-dihydrobenzofuran-7-yl)oxy)-N-(6-methylpyridazin-3-yl)acetamide], for which, in the data set “in vitro”, the CC50 at 48 h is over 100 µM. In addition, the pEC50 in data set [1] was 4.63.

In “in vitro”, `CC1(C)Cc2cccc(OCC(=O)Nc3nc4c(Br)cccc4s3)c2O1` [Compound 1, N-(4-bromobenzo[d]thiazol-2-yl)-2-((2,2-dimethyl-2,3-dihydrobenzofuran-7-yl)oxy)acetamide] registered a CC50 at 48 h of over 90 µM. Further, in data set [1], the pEC50 is 6.92.

For `CC1(C)Cc2cccc(OCC(=O)Nc3nc(C(=O)N4CC(CO)C4)cs3)c2O1` [Compound 153, 2-((2,2-Dimethyl-2,3-dihydrobenzofuran-7-yl)oxy)-N-(4-(3-(hydroxymethyl)azetidine-1-carbonyl)thiazol-2-yl)acetamide], in the data set “in vitro”, the CC50 is over 90 µM and the CC50 at 48 h is over 90 µM. In data set [1], the pEC50 was under 4.60 and the activity at 100 µM came out at 39%.

`Cc1csc(NC(=O)COc2ccccc2OC(C)C)n1` [Compound 140, 2-(2-isopropoxyphenoxy)-N-(4-methylthiazol-2-yl)acetamide] had a CC50 at 48 h in the data set “in vitro” of over 125 µM. The pEC50 in data set [1] is 4.85.

Take `Cc1csc(N(C(=O)COc2cccc3c2OC(C)(C)C3)c2ccccc2Cl)n1` [Compound 61, N-(2-Chlorophenyl)-2-((2,2-dimethyl-2,3-dihydrobenzofuran-7-yl)oxy)-N-(4-methylthiazol-2-yl)acetamide]: in “in vitro”, the cytotoxic concentration (CC50) at 48 h was over 100 µM. Further, in data set [1], the pEC50 is 5.66.

Turning to `Cc1ccc(CN(C(=O)COc2cccc3c2OC(C)(C)C3)c2ccc(C)cn2)nc1` [Compound 49, 2-((2,2-Dimethyl-2,3-dihydrobenzofuran-7-yl)oxy)-N-(5-methylpyridin-2-yl)-N-((5-methylpyridin-2-yl)methyl)acetamide], the CC50 at 48 h in the data set “in vitro” was over 125 µM. Besides, the pEC50 in data set [1] is 5.51.

In the case of `Cc1cc(NC(=O)COc2cccc3c2OC(C)(C)C3)ncc1Br` [Compound 76, N-(5-Bromo-4-methylpyridin-2-yl)-2-((2,2-dimethyl-2,3-dihydrobenzofuran-7-yl)oxy)acetamide], in the data set “in vitro”, the CC50 at 48 h was over 125 µM. Also, the pEC50 in data set [1] is 4.64.

The compound `CCc1ccc(N(C)C(=O)COc2cccc3c2OC(C)(C)C3)nc1` [Compound 80, 2-((2,2-Dimethyl-2,3-dihydrobenzofuran-7-yl)oxy)-N-(5-ethylpyridin-2-yl)-N-methylacetamide] showed a CC50 at 48 h in the data set “in vitro” of over 125 µM. In addition, in data set [1], the pEC50 is 5.34.

As to `Cc1c(Cl)cccc1OCC(=O)N(C)c1nc2c(s1)CCCC2` [Compound 129, 2-(3-Chloro-2-methylphenoxy)-N-methyl-N-(4,5,6,7-tetrahydrobenzo[d]thiazol-2-yl)acetamide], the CC50 at 48 h in the data set “in vitro” is over 125 µM. Besides, the pEC50 in data set [1] was under 4.60.

In the data set “in vitro”, `CC1(C)Cc2cccc(OCC(=O)Nc3nc(C(=O)N4CCCC4)cs3)c2O1` [Compound 150, 2-((2,2-dimethyl-2,3-dihydrobenzofuran-7-yl)oxy)-N-(4-(pyrrolidine-1-carbonyl)thiazol-2-yl)acetamide] showed a CC50 of over 90 µM and a CC50 at 48 h of over 90 µM. In addition, in data set [1], the pEC50 was under 4.60 and the activity at 100 µM worked out at 47%.

The compound `CC1(C)Cc2cccc(OCC(=O)N(Cc3ccncc3)c3nc4c(s3)CCCC4)c2O1` [Compound 52, 2-((2,2-Dimethyl-2,3-dihydrobenzofuran-7-yl)oxy)-N-(pyridin-4-ylmethyl)-N-(4,5,6,7-tetrahydrobenzo[d]thiazol-2-yl)acetamide] showed a CC50 at 48 h in “in vitro” of 1 µM. Besides, the pEC50 in data set [1] is 7.49.

In the data set “in vitro”, `COc1cc(C)ccc1OCC(=O)N(C)c1nc2c(s1)CCCC2` [Compound 115, 2-(2-Methoxy-4-methylphenoxy)-N-methyl-N-(4,5,6,7-tetrahydrobenzo[d]thiazol-2-yl)acetamide] showed a CC50 at 48 h of over 125 µM. Further, the pEC50 in data set [1] is 5.74.

On to `Cc1csc(N(C(=O)COc2cccc3c2OC(C)(C)C3)c2cncnc2)n1` [Compound 97, 2-((2,2-Dimethyl-2,3-dihydrobenzofuran-7-yl)oxy)-N-(4-methylthiazol-2-yl)-N-(pyrimidin-5-yl)acetamide], for which, in the data set “in vitro”, the CC50 is over 125 µM and the CC50 at 48 h is over 125 µM. In data set [1], the pEC50 is under 4.60 and the activity at 100 µM was determined as 5.4%.

In “in vitro”, `Cc1nc(NC(=O)C(C)(C)Oc2cccc3c2OC(C)(C)C3)sc1C` [Compound 19, 2-((2,2-Dimethyl-2,3-dihydrobenzofuran-7-yl)oxy)-N-(4,5-dimethylthiazol-2-yl)-2-methylpropanamide] showed a CC50 of over 90 µM and a CC50 at 48 h of over 90 µM. For the same compound, in data set [1], the pEC50 is under 4.52 and the activity at 100 µM amounted to 20%.

With `CC1(C)Cc2cccc(OCC(=O)Nc3ncnc4ccccc34)c2O1` [Compound 15, 2-((2,2-Dimethyl-2,3-dihydrobenzofuran-7-yl)oxy)-N-(quinazolin-4-yl) acetamide], in the data set “in vitro”, the CC50 was over 100 µM and the CC50 at 48 h is over 100 µM. Further, in data set [1], the pEC50 is under 4.60 and the activity at 100 µM was 14%.

Take `Cc1nccc(NC(=O)COc2cccc3c2OC(C)(C)C3)n1` [Compound 29, 2-((2,2-Dimethyl-2,3-dihydrobenzofuran-7-yl)oxy)-N-(2-methylpyrimidin-4-yl)acetamide]: in the data set “in vitro”, the CC50 was over 100 µM and the CC50 at 48 h was over 100 µM. Further, in data set [1], the pEC50 is under 4.60 and the activity at 100 µM turned out to be 65%.

Regarding `COc1ccccc1OCC(=O)Nc1nc(C)cs1` [Compound 190, 2-(2-Methoxyphenoxy)-N-(4-methylthiazol-2-yl)acetamide], in the data set “in vitro”, the CC50 was over 100 µM and the CC50 at 48 h was over 100 µM. In data set [1], the pEC50 is under 4.60 and the activity at 100 µM was determined as 34%.

In the case of `Cc1csc(N(Cc2ncccn2)C(=O)COc2cccc3c2OC(C)(C)C3)n1` [Compound 43, 2-((2,2-Dimethyl-2,3-dihydrobenzofuran-7-yl)oxy)-N-(4-methylthiazol-2-yl)-N-(pyrimidin-2-ylmethyl)acetamide], the CC50 at 48 h in the data set “in vitro” is over 100 µM. Also, in data set [1], the pEC50 was 6.15.

As to `CC1(C)Cc2cccc(OCC(=O)Nc3nc(C(=O)N4CC[C@H](CO)C4)cs3)c2O1` [Compound 152, (S)-2-((2,2-Dimethyl-2,3-dihydrobenzofuran-7-yl)oxy)-N-(4-(3-(hydroxymethyl)pyrrolidine-1-carbonyl)thiazol-2-yl)acetamide], in the data set “in vitro”, the CC50 was over 90 µM and the CC50 at 48 h was over 90 µM. In data set [1], the pEC50 was under 4.60 and the activity at 100 µM was found to be 54%.

For the compound `Cc1csc(NC(=O)COc2cccc3c2OC(C)(C)C3)n1` [Compound 181, 2-((2,2-Dimethyl-2,3-dihydrobenzofuran-7-yl)oxy)-N-(4-methylthiazol-2-yl) acetamide], the CC50 at 48 h in the data set “in vitro” is over 90 µM. Besides, the pEC50 in data set [1] was 6.21.

`Cc1csc(NC(=O)COc2cccc3cc[nH]c23)n1` [Compound 134, 2-((1H-Indol-7-yl)oxy)-N-(4-methylthiazol-2-yl)acetamide]: the CC50 at 48 h in the data set “in vitro” is over 100 µM. Besides, in data set [1], the pEC50 is 4.96.

Regarding `Cc1cc2c(OCC(=O)N(C)c3nc4c(s3)CCCC4)cccc2[nH]1` [Compound 123, N-Methyl-2-((2-methyl-1H-indol-4-yl)oxy)-N-(4,5,6,7-tetrahydrobenzo[d]thiazol-2-yl)acetamide], in “in vitro”, the CC50 at 48 h was over 125 µM. In addition, the pEC50 in data set [1] was 7.89.

In the data set “in vitro”, `CC1(C)Cc2cccc(OCC(=O)Nc3nc4ccc(OC(F)(F)F)cc4s3)c2O1` [Compound 149, 2-((2,2-Dimethyl-2,3-dihydrobenzofuran-7-yl)oxy)-N-(6-(trifluoromethoxy)benzo[d]thiazol-2-yl)acetamide] had a CC50 of over 100 µM and a CC50 at 48 h of over 100 µM. Further, in data set [1], the pEC50 is under 4.60 and the activity at 100 µM was 27%.
